# Source: patent US12624018B1, “Inhibitors of RIPK2 and medical uses thereof” (Odyssey Therapeutics, Inc., priority 2022, dated 2026)
# Where two headings read alike, the source gives them in different places.
# Assays:
# human NOD2 signaling = experiment: Inhibition of human NOD2 signaling in HEK-Blue-hNOD2 cells (L18-MDP stimulated, SEAP reporter); assay type: cell-based; conditions: NOD2 ligand stimulation, SEAP reporter, read-out: hNOD2 IC50
# Procedure: Materials: Human NOD32-expressing 1TEK293 cells, HEK-Blue™-hNOD2 cells, were developed by Invivogen (catalogue number: hkb-hnod2) using co-transfection of the human NOD2 gene and an optimized secreted embryonic alkaline phosphatase (SEAP) reporter gene into HTEK293 cells. The cell maintenance medium consisted of DMEM (Giboc, 21063-029), heat inactivated FBS, penicillin (100 U/mL), streptomycin (100 μg/mL), Normocin (100 μg/mL), Blasticidin (30 μg/mL), and Zeocin (100 μg/mL). HEK-Blue™-hNOD2 cells were transferred to assay medium consisting of DMEM (Giboc, 21063-029), heat inactivated FBS, penicillin (100 U/mL) and streptomycin (100 μg/mL) prior to stimulation. Stimulation with a NOD2 ligand, L18-MDP (Invivogen, catalogue number: tlrl-lmdp) activated NF-κB and AP-1 which induced the production of SEAP. Levels of SEAP were determined with HEK-Blue™ Detection (referred to as QUANTI-Blue solution), a cell culture medium that allows for real-time detection of SEAP. QUANTI-Blue solution was prepared by adding 1 mL of QB reagent and 1 mL of QB buffer to 98 mL of sterile H2O. Test compounds were prepared into a 10 mM DMSO solution and were serially diluted into 10 points using a 3-fold dilution in a 384 well plate using a TECAN EVO200.
# Method: In a 384 well plate, 40 nL of test compound was dispensed using Echo550. HEK-Blue™-hNOD2 cells (Invivogen) were prepared into a cell suspension and 40 μL of the cell suspension (12500 cells per well) was dispensed into the 384 well plate. To activate NOD2 signaling, 40 nL of L18-MDP (final concentration of 0.5 ng/mL) was added and the plate was incubated at 37° C. in a CO2 incubator for 24 hours. After the 24-hour incubation, 5 μL of the induced HEK-Blue hNOD2 cell supernatant was transferred to a new 384-well plate, centrifuged, and 45 μL of QUANTI-Blue solution was added per well and incubated for 3 hours at 37° C. SEAP levels were measured using an Ensight at 620 nm. Percent inhibition of NOD2 signaling was determined using the following equation: (high control−test compound signal)/(High control−low control)×100. The reaction high control was determined using wells with DMSO, cells, L18-MDP, and QUANTI-Blue solution. The reaction low control was determined using wells with DMSO, cells, and QUANTI-Blue solution. 4-parametric curve fit was used to determine the test compound concentration that results in 50% reduction of L18-MDP-driven human NOD2 signaling.
# Using the assay described above, inhibition of hNOD2 signaling was also evaluated for GSK 2983559 (Haile at al., J. Med. Chem. 2019, 62, 14, 6482-6494), a known RIPK2 kinase inhibitor: […]
# RIPK2 enzyme = target: T1, RIPK2 enzyme (Homo sapiens, UniProt O43353); experiment: RIPK2 inhibition (ADP-Glo Kinase Assay); assay type: biochemical; conditions: RIPK2 5 nM, ATP 150 μM, MBP substrate, read-out: RIPK2 IC50
# T1 construct: purchased Carna 09-128
# T1 sequence (O43353 1-299 limits assumed): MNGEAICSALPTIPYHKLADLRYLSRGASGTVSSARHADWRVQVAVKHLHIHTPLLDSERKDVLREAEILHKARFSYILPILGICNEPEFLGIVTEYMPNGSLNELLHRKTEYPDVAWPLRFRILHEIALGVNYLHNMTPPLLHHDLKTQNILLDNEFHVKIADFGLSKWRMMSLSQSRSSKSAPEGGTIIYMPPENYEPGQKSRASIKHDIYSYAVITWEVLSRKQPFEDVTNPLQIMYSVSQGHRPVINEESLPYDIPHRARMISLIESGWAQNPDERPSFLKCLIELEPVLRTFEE
# Method in brief: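 Human RIPK2 (5 nM) preincubated with compound 30 min at room temperature in 50 mM HEPES pH 7.5, 10 mM MgCl2, 2 mM DTT, 1 mM EGTA, 0.01% Brij-35, 0.05% BSA; native swine MBP as substrate. ADP formed quantified by ADP-Glo luminescence; percent inhibition relative to DMSO and no-enzyme controls.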
# [1] = Homo sapiens, HEK-Blue hNOD2, HEK-Blue-hNOD2 cells
SMILES,IC50 (human NOD2 signaling; HEK-Blue-hNOD2 cells),IC50 (RIPK2 enzyme),IC50 (human NOD2 signaling; [1])
"Cc1c(Oc2ccnc3ccc(S(=N)(=O)C(C)(C)C)cc23)ccc(CC(=O)Nc2cnn(C(C)(C)C)c2)c1F (single isomer, unassigned) [Compound 539, N-(1-(tert-butyl)-1H-pyrazol-4-yl)-2-(2-fluoro-3-methyl-4-((6-(2-methylpropan-2-ylsulfonimidoyl)quinolin-4-yl)oxy)phenyl) acetamide]",1.2 nM,< 2.5 nM,
"Cc1c(Oc2ccnc3ccc(S(=N)(=O)C(C)(C)C)cc23)ccc(CC(=O)Nc2cnn(C(C)(C)C)c2)c1F (single isomer, unassigned) [Compound 540, N-(1-(tert-butyl)-1H-pyrazol-4-yl)-2-(2-fluoro-3-methyl-4-((6-(2-methylpropan-2-ylsulfonimidoyl)quinolin-4-yl)oxy)phenyl) acetamide]",0.5 nM,< 2.5 nM,
"Cc1c(Oc2ccnc3ccc(S(=N)(=O)C4CCC4)cc23)ccc(CC(=O)Nc2cnn(C(C)(C)C)c2)c1F (single isomer, unassigned) [Compound 541, N-(1-(tert-butyl)-1H-pyrazol-4-yl)-2-(4-((6-(cyclobutanesulf-onimidoyl)quinolin-4-yl)oxy)-2-fluoro-3-methylphenyl) acetamide]",,< 2.5 nM,0.3 nM
"Cc1c(Oc2ccnc3ccc(S(=N)(=O)C4CCC4)cc23)ccc(CC(=O)Nc2cnn(C(C)(C)C)c2)c1F (single isomer, unassigned) [Compound 542, N-(1-(tert-butyl)-1H-pyrazol-4-yl)-2-(4-((6-(cyclobutanesulf-onimidoyl)quinolin-4-yl)oxy)-2-fluoro-3-methylphenyl) acetamide]",0.2 nM,< 2.5 nM,
"Cc1cc(CC(=O)Nc2cnn(C(C)(C)C)c2)ccc1Oc1ccnc2ccc(S(=N)(=O)C(C)(C)C)cc12 (single isomer, unassigned) [Compound 549, N-(1-(tert-butyl)-1H-pyrazol-4-yl)-2-(3-methyl-4-((6-(2-methylpropan-2-ylsulfonimidoyl)quinolin-4-yl)oxy)phenyl) acetamide]",,< 2.5 nM,18.2 nM
"Cc1cc(CC(=O)Nc2cnn(C(C)(C)C)c2)ccc1Oc1ccnc2ccc(S(=N)(=O)C(C)(C)C)cc12 (single isomer, unassigned) [Compound 550, N-(1-(tert-butyl)-1H-pyrazol-4-yl)-2-(3-methyl-4-((6-(2-methylpropan-2-ylsulfonimidoyl)quinolin-4-yl)oxy)phenyl) acetamide]",11 nM,< 2.5 nM,
"Cc1cc(CC(=O)Nc2cnn(C(C)(C)C)c2)ccc1Oc1ccnc2cc(F)c(S(=N)(=O)C3CC3)cc12 (single isomer, unassigned) [Compound 553, N-(1-(tert-butyl)-1H-pyrazol-4-yl)-2-(4-((6-(cyclopropane-sulfonimidoyl)-7-fluoroquinolin-4-yl)oxy)-3-methylphenyl) acetamide]",,< 2.5 nM,5.6 nM
"Cc1cc(CC(=O)Nc2cnn(C(C)(C)C)c2)ccc1Oc1ccnc2cc(F)c(S(=N)(=O)C3CC3)cc12 (single isomer, unassigned) [Compound 554, N-(1-(tert-butyl)-1H-pyrazol-4-yl)-2-(4-((6-(cyclopropane-sulfonimidoyl)-7-fluoroquinolin-4-yl)oxy)-3-methylphenyl) acetamide]",4.9 nM,< 2.5 nM,
"CCS(=N)(=O)c1ccc2nccc(Oc3ccc(CC(=O)Nc4cnn(C56CC(C5)C6)c4)cc3C)c2c1 (single isomer, unassigned) [Compound 593, N-(1-(bicyclo[1.1.1]pentan-1-yl)-1H-pyrazol-4-yl)-2-(4-((6-(ethylsulfonimidoyl)quinolin-4-yl)oxy)-3-methylphenyl) acetamide]",,< 2.5 nM,6.7 nM
"Cc1cc(CC(=O)Nc2cnn(C(C)C(F)(F)F)c2)ccc1Oc1ccnc2ccc(S(C)(=O)=O)cc12 (single isomer, unassigned) [Compound 594, 2-(3-methyl-4-((6-(methylsulfonyl)quinolin-4-yl)oxy)phenyl)-N-(1-(1,1,1-trifluoropropan-2-yl)-1H-pyrazol-4-yl)acetamide]",,< 2.5 nM,27 nM
"Cc1cc(CC(=O)Nc2cnn(C(C)C(F)(F)F)c2)ccc1Oc1ccnc2ccc(S(C)(=O)=O)cc12 (single isomer, unassigned) [Compound 595, 2-(3-methyl-4-((6-(methylsulfonyl)quinolin-4-yl)oxy)phenyl)-N-(1-(1,1,1-trifluoropropan-2-yl)-1H-pyrazol-4-yl)acetamide]",19.3 nM,< 2.5 nM,
"Cc1cc(CC(=O)Nc2cnn(C(C)(C)C)c2)ccc1Oc1ccnc2ccc(C(O)C(N)=O)cc12 (single isomer, unassigned) [Compound 609, 2-(4-((6-(2-amino-1-hydroxy-2-oxoethyl)quinolin-4-yl)oxy)-3-methylphenyl)-N-(1-(tert-butyl)-1H-pyrazol-4-yl)acetamide]",,< 2.5 nM,46.3 nM
"Cc1cc(CC(=O)Nc2cnn(C(C)(C)C)c2)ccc1Oc1ccnc2ccc(C(C)(O)C(N)=O)cc12 (single isomer, unassigned) [Compound 615, 2-(4-(4-(2-((1-(tert-butyl)-1H-pyrazol-4-yl)amino)-2-oxoethyl)-2-methylphenoxy)quinolin-6-yl)-2-hydroxypropanamide]",,2.8 nM,17.5 nM
"Cc1cc(CC(=O)Nc2cnn(C(C)(C)C)c2)ccc1Oc1ccnc2ccc(C(C)(O)C(N)=O)cc12 (single isomer, unassigned) [Compound 616, 2-(4-(4-(2-((1-(tert-butyl)-1H-pyrazol-4-yl)amino)-2-oxoethyl)-2-methylphenoxy)quinolin-6-yl)-2-hydroxypropanamide]",22.4 nM,< 2.5 nM,
"Cc1cc(CC(=O)Nc2cc(C(C)(C)C)[nH]n2)ccc1Oc1ccnc2cc(F)c(S(C)(=N)=O)cc12 (single isomer, unassigned) [Compound 620, N-(5-(tert-butyl)-1H-pyrazol-3-yl)-2-(4-((7-fluoro-6-(S-methylsulfonimidoyl)quinolin-4-yl)oxy)-3-methylphenyl) acetamide]",,< 2.5 nM,6.7 nM
"Cc1cc(CC(=O)Nc2cc(C(C)(C)C)[nH]n2)ccc1Oc1ccnc2cc(F)c(S(C)(=N)=O)cc12 (single isomer, unassigned) [Compound 621, N-(5-(tert-butyl)-1H-pyrazol-3-yl)-2-(4-((7-fluoro-6-(S-methylsulfonimidoyl)quinolin-4-yl)oxy)-3-methylphenyl) acetamide]",11.7 nM,< 2.5 nM,
"CC(C)(C)n1cc(NC(=O)Cc2ccc(Oc3ccnc4ccc(C(N)=O)cc34)c(C(F)F)c2)cn1 [Compound 462, 4-(4-(2-((1-(tert-butyl)-1H-pyrazol-4-yl)amino)-2-oxoethyl)-2-(difluoromethyl)phenoxy) quinoline-6-carboxamide]",,< 2.5 nM,7.5 nM
"CNC(=O)c1ccc2nccc(Oc3ccc(CC(=O)Nc4cnn(C(C)(C)C)c4)cc3C(F)F)c2c1 [Compound 463, 4-(4-(2-((1-(tert-butyl)-1H-pyrazol-4-yl)amino)-2-oxoethyl)-2-(difluoromethyl)phenoxy)-N-methylquinoline-6-carboxamide]",,< 2.5 nM,4 nM
"Cc1cc(CC(=O)Nc2cnn(C(C)(C)C)c2)c(F)cc1Oc1ccnc2ccc(-c3ncccc3C)cc12 [Compound 475, N-(1-(tert-butyl)-1H-pyrazol-4-yl)-2-(2-fluoro-5-methyl-4-((6-(3-methylpyridin-2-yl)quinolin-4-yl)oxy)phenyl)acetamide]",,4.2 nM,54 nM
